# According to patent publication EP0725776B1, “3-ARYL-4-ALKYL AND 4,5-DIALKYL-4H-1,2,4-TRIAZOLES USEFUL AS MEMORY ENHANCERS” (MERRELL PHARMACEUTICALS INC., priority 1993, dated 1995):
# Assays:
# [1] = system: Diazepam-Induced Water Maze Learning Impairment; assay: Reversal of diazepam-induced water maze learning impairment; format: in vivo, Male Sprague-Dawley rats; settings: for Mean Latency ± S.E.M., Block 1 / Mean Latency ± S.E.M., Block 2 / Mean Latency ± S.E.M., Block 3: 8 rats
# Description: The activity of compounds of formula I in enhancing spacial learning ability and cognition can be tested by studying their ability to reverse a water maze learning impairment induced by the benzodiazepine, diazepam (R. G. M. Morris, Learning and Motivation 12, 239-260 (1982); M. P. Arolfo, and J. D. Brioni, Behavioral and Neural Biology 55, 131-6 (1991); R. K. McNamara and R. W. Skelton, Pharmacology, Biochemistry & Behavior 38, 651-8 (1991); R. K. McNamara and R. W. Skelton, Psychopharmacology 107, 347-51 (1992)).
# Male Sprague-Dawley rats are trained in a 120-cm diameter water-filled tank to locate a hidden platform submerged just below the surface of the water. The location of the platform remained constant, but for each trial the animal was required to swim from one of three different starting locations around the edge of the tank. There were no proximal cues in the tank, so the animal had to use a spatial mapping strategy using the distal cues around the room to navigate to the hidden platform. The animals were given 9 successive training trials during the single training day. […] After the animal found or was placed on the platform, it was allowed to stay there for 30 seconds. The next trial commenced immediately following the 30 second stay on the platform. Latency to locate the platform was recorded for each trial using a computerized video tracking system for automated acquisition of the data.
# Separate treatment groups of four animals each were run in each experiment. The results of two experiments were combined so that 8 rats were tested in each treatment group. The vehicle-vehicle group received vehicle (distilled water plus Tween) i.p. 60 minutes prior to the first trial and vehicle i.p. 20 minutes prior to the first trial. The vehicle-diazepam group received vehicle i.p. 60 minutes prior to the first trial and 2.5 mg/kg diazepam i.p. 20 minutes prior to the first trial. Two groups of animals were treated with 3-(3-fluorophenyl)-4-methyl-4H-1,2,4-triazole, a compound of formula I, prior to treatment with diazepam. One group received 20 mg/kg of 3-(3-fluorophenyl)-4-methyl-4H-1,2,4-triazole i.p. 60 minutes prior to the first trial and 2.5 mg/kg diazepam i.p. 20 minutes prior to the first trial, while the second group received 40 mg/kg of 3-(3-fluorophenyl)-4-methyl-4H-1,2,4-triazole i.p. 60 minutes prior to the first trial and 2.5 mg/kg diazepam i.p. 20 minutes prior to the first trial.
# The latency scores for each animal were averaged into three blocks of three trials each (one trial from each starting location). A one-way ANOVA comparing the treatment groups was computed on the scores for each trial block. If the overall ANOVA was statistically significant, comparisons between individual treatment groups were made with Fisher's PLSD test.
# [2] = reported by M. Y. Mhasalkar, et al., J. Med. Chem 14(3) 260-262, (1971); cited from earlier work
# RAT CORTICAL MEMBRANES = assay: [3H]hemicholinium-3 binding in vitro in cortical membranes after in vivo administration; design: species or system Male Sprague-Dawley rats; settings: n=10
# Description: The pharmacological properties of these compounds as enhancers of memory and cognition and their relative potencies may be measured through their effect on neuro-transmitters in the brain. Since drugs that block GABA inhibition in the cholinergic neurons of the basal forebrain nuclei will stimulate cholinergic firing, thus stimulating memory, the capacity of the drugs to enhance cognition can be assessed by measuring the increase in cholinergic firing rate. The increase in cholinergic firing rate is measured indirectly by measuring choline uptake or [^3H] hemicholinium-3 binding in brain cells taken from treated animals.
# To test for [^3H] hemicholinium-3 binding in brain cells from the brain cortex, drugs were dissolved in saline by sonication. Male Sprague-Dawley rats were dosed i.p. and sacrificed by decapitation 60 min after injection. […] Binding was measured by incubating the tissue with varying concentrations of [^3H]hemicholinium-3 in an isotonic Tris buffer (pH 7.4) for 60 min at room temperature. […] After drying, the filters were placed in scintillation cocktail and radioactivity was determined using a Beckman scintillation counter. The values for the Kd and Bmax were determined by nonlinear curve-fitting and the average values for samples of 3 or more animals reported. […]
# [3] = vehicle i.p. 60 min prior, diazepam alone 2.5 mg/kg i.p. 20 min prior to first trial
# [4] = 20 mg/kg i.p. 60 min prior to first trial, diazepam 2.5 mg/kg i.p. 20 min prior
# [5] = 40 mg/kg i.p. 60 min prior to first trial, diazepam 2.5 mg/kg i.p. 20 min prior
smiles,measurement,setting,value
"CN1C(=O)CN=C(c2ccccc2)c2cc(Cl)ccc21 [diazepam, reference compound]",Effect on water maze learning,"[1]; diazepam 2.5 mg/kg i.p. versus vehicle-vehicle group, p < .05 on all three blocks, result in words",significantly impaired water maze learning
same,"Mean Latency ± S.E.M., Block 1",[1]; [3],57.70 ± 2.30 s
same,"Mean Latency ± S.E.M., Block 2",[1]; [3],49.67 ± 6.06 s
same,"Mean Latency ± S.E.M., Block 3",[1]; [3],55.76 ± 4.24 s
"Cn1cnnc1-c1ccc(Cl)cc1 [3-(4-Chlorophenyl)-4-methyl-4H-1,2,4-triazole]",hypoglycemic activity,[2],hypoglycemic activity
"Cn1cnnc1-c1cccc(F)c1 [3-(3-Fluorophenyl)-4-methyl-4H-1,2,4-triazole]",Bmax ± SEM,"RAT CORTICAL MEMBRANES; [3H]hemicholinium-3 binding, rat cortex, dosed i.p. (1/mg/kg), sacrificed 60 min after injection",20.4±2.48 fmol/mg Protein
same,% Increase in Bmax,"RAT CORTICAL MEMBRANES; over saline control, (1/mg/kg) i.p., 60 min",45%
same,"Mean Latency ± S.E.M., Block 1",[1]; [4],44.68 ± 2.56 s
same,"Mean Latency ± S.E.M., Block 2",[1]; [4],37.67 ± 6.01 s
same,"Mean Latency ± S.E.M., Block 3",[1]; [4],35.21 ± 6.00 s
same,Effect on diazepam-induced impairment,"[1]; 20 mg/kg i.p. plus diazepam 2.5 mg/kg, result in words",attenuated diazepam-induced impairment
same,"Mean Latency ± S.E.M., Block 1",[1]; [5],58.19 ± 1.01 s
same,"Mean Latency ± S.E.M., Block 2",[1]; [5],52.83 ± 3.85 s
same,"Mean Latency ± S.E.M., Block 3",[1]; [5],53.59 ± 4.31 s
same,Effect on diazepam-induced impairment,"[1]; 40 mg/kg i.p. plus diazepam 2.5 mg/kg, result in words",did not affect the diazepam-induced impairment
